Experimental findings from patent US20110071150A1 (priority 2009, published 2011) are described below.

By IC50 is commonly meant the concentration needed to halve the response being measured.

Structures are written as SMILES.

This assay concerns Jurkat IL-2 Production. Put plainly: Jurkat IL-2 Production Assay. The class given is cell-based. Conditions: Homo sapiens, Jurkat cell (ATCC), 18-20 h incubation, PHA 5 μg/mL with 1% FBS, or PMA/Ionomycin with 30% FBS (table does not say which). In short, it runs like this:
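Jurkat cells were exposed to compound (0.25% DMSO final) for 10 min, then stimulated for 18–20 h at 37 °C. The 1% FBS condition used 5 μg/mL PHA; the high-serum condition (30% FBS) used 50 ng/mL PMA plus 500 ng/mL ionomycin. IC50 was derived from IL-2 production.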
For `Cc1sc(-c2ccnnc2)nc1-c1ccc2[nH]c(-c3c(F)cccc3F)cc2c1` [Example 105, 2-(2,6-Difluoro-phenyl)-5-(5-methyl-2-pyridazin-4-yl-thiazol-4-yl)-1H-indole], the IC50 stood at 664 nM.

Turning to `Cc1ccc(-c2nccs2)cc1-c1ccc2[nH]c(-c3c(F)cccc3F)cc2c1` [Example 25, 2-(2,6-Difluoro-phenyl)-5-(2-methyl-5-thiazol-2-yl-phenyl)-1H-indole], half-maximal inhibition (IC50) was put at 224 nM. Against the preceding compound, the IC50 is about 3-fold lower.

Take `Cc1cc(C#N)ccc1-c1ccc2[nH]c(-c3c(F)cccc3Cl)cc2c1` [Example 158, 4-[2-(2-chloro-6-fluorophenyl)-1H-indol-5-yl]-3-methylbenzonitrile]: the IC50 stood at 16 nM.

Compound `Cn1nc(C(F)(F)F)cc1-c1ccc2[nH]c(-c3ccc(OC(F)(F)F)cc3)cc2c1` [Example 3, 5-(2-Methyl-5-trifluoromethyl-2H-pyrazol-3-yl)-2-(4-trifluoromethoxy-phenyl)-1H-indole] displayed an IC50 of 954 nM. Against the preceding compound, the IC50 is about 60-fold higher.

Take `CCn1nc(-c2cccnc2)nc1-c1ccc2[nH]c(-c3c(Cl)cccc3Cl)cc2c1` [Example 186, 2-(2,6-Dichloro-phenyl)-5-(2-ethyl-5-pyridin-3-yl-2H-[1,2,4]triazol-3-yl)-1H-indole]: the IC50 is 34 nM.

Turning to `COc1ccc(OC)c(-c2ccc3[nH]c(-c4c(F)cccc4F)cc3c2)c1` [Example 26, 2-(2,6-Difluoro-phenyl)-5-(2,5-dimethoxy-phenyl)-1H-indole], the IC50 worked out at 639 nM.

Consider `Cc1cc(S(=O)(=O)N(C)C)ccc1-c1ccc2[nH]c(-c3ccccc3Cl)cc2c1` [Example 130, 4-[2-(2-Chloro-phenyl)-1H-indol-5-yl]-3,N,N-trimethyl-benzenesulfonamide], for which the IC50 worked out at 16 nM.

As for `Cc1ccc(-c2nc(-c3ccc4[nH]c(-c5c(F)cccc5Cl)cc4c3)c(C)s2)cn1` [Example 178, 2-(2-Chloro-6-fluoro-phenyl)-5-[5-methyl-2-(6-methyl-pyridin-3-yl)-thiazol-4-yl]-1H-indole], 59 nM corresponded to half-maximal inhibition (IC50). This IC50 lies about 3.7-fold higher than the previous one.

Compound `CCn1nc(-c2cccnc2)cc1-c1ccc2[nH]c(-c3c(F)cccc3Cl)cc2c1` [Example 49, 2-(2-Chloro-6-fluoro-phenyl)-5-(2-ethyl-5-pyridin-3-yl-2H-pyrazol-3-yl)-1H-indole] had an IC50 of 13 nM.

With `CNc1cc(C)c(-c2ccc3[nH]c(-c4c(F)cccc4Cl)cc3c2)cn1` [Example 166, 5-(2-(2-chloro-6-fluorophenyl)-1H-indol-5-yl)-N,4-dimethylpyridin-2-amine], the IC50 is 518 nM.

The compound `CCc1sc(-c2cccnc2)nc1-c1ccc2[nH]c(-c3c(F)cccc3F)cc2c1` [Example 207, 2-(2,6-Difluoro-phenyl)-5-(5-ethyl-2-pyridin-3-yl-thiazol-4-yl)-1H-indole] returned an IC50 of 26 nM.

`Cc1cc(-c2ncco2)ccc1-c1ccc2[nH]c(-c3c(F)cccc3F)cc2c1` [Example 102, 2-(2,6-Difluoro-phenyl)-5-(2-methyl-4-oxazol-2-yl-phenyl)-1H-indole] registered an IC50 of 74 nM.

`CCn1nc(-c2cccnc2)cc1-c1ccc2[nH]c(-c3ccccc3C)cc2c1` [Example 80, 5-(2-Ethyl-5-pyridin-3-yl-2H-pyrazol-3-yl)-2-o-tolyl-1H-indole] showed an IC50 of 91 nM.

`Cc1ncccc1-c1cc2cc(-c3sc(-c4ccccc4)nc3C)ccc2[nH]1` [Example 8, 5-(4-Methyl-2-phenyl-thiazol-5-yl)-2-(2-methyl-pyridin-3-yl)-1H-indole] had an IC50 of 287 nM.

In turn, `Cc1cc(S(C)(=O)=O)ncc1-c1ccc2[nH]c(-c3c(F)cccc3Cl)cc2c1` [Example 173, 2-(2-Chloro-6-fluoro-phenyl)-5-(6-methanesulfonyl-4-methyl-pyridin-3-yl)-1H-indole] gave a concentration for half-maximal inhibition (IC50) of 12 nM.

The compound `COc1cc(F)c(-c2cc3cc(-c4nc(-c5cccnc5)sc4C)ccc3[nH]2)c(F)c1` [Example 66, 2-(2,6-Difluoro-4-methoxy-phenyl)-5-(5-methyl-2-pyridin-3-yl-thiazol-4-yl)-1H-indole] yielded an IC50 of 33 nM.

Compound `Cc1nc(C)c(-c2cc3cc(-c4ccc(C#N)cc4C)ccc3[nH]2)s1` [Example 148, 4-(2-(2,4-dimethylthiazol-5-yl)-1H-indol-5-yl)-3-methylbenzonitrile] showed an IC50 of 547 nM.

`Cc1sc(-c2cnccn2)nc1-c1ccc2[nH]c(-c3c(F)cccc3F)cc2c1` [Example 206, 2-(2,6-Difluoro-phenyl)-5-(5-methyl-2-pyrazin-2-yl-thiazol-4-yl)-1H-indole] had an IC50 of 51 nM.

For `Cc1sc(-c2ncco2)nc1-c1ccc2[nH]c(-c3c(F)cccc3Cl)cc2c1` [Example 125, 2-(2-Chloro-6-fluoro-phenyl)-5-(5-methyl-2-oxazol-2-yl-thiazol-4-yl)-1H-indole], the IC50 was 49 nM. The IC50 values of the last two compounds are within 1.5-fold of each other.

Turning to `Cc1cccc(F)c1-c1cc2cc(-c3nc(-c4ccccn4)sc3C)ccc2[nH]1` [Example 221, 2-(2-Fluoro-6-methyl-phenyl)-5-(5-methyl-2-pyridin-2-yl-thiazol-4-yl)-1H-indole], the IC50 was 95 nM.

With `Cc1cc(S(=O)(=O)N(C)C)ccc1-c1ccc2[nH]c(-c3ccccc3)c(C)c2c1` [Example 226, N,N,3-trimethyl-4-(3-methyl-2-phenyl-1H-indol-5-yl)benzenesulfonamide], the concentration for half-maximal inhibition (IC50) was determined as 602 nM.

Compound `CC(C)c1sc(-c2cnccn2)nc1-c1ccc2[nH]c(-c3c(F)cccc3Cl)cc2c1` [Example 181, 2-(2-Chloro-6-fluoro-phenyl)-5-(5-isopropyl-2-pyrazin-2-yl-thiazol-4-yl)-1H-indole] displayed an IC50 of 56 nM.

In the case of `COc1ccc(-c2cc3cc(-c4ccc(C#N)cc4C)ccc3[nH]2)c(C)n1` [Example 139, 4-(2-(6-methoxy-2-methylpyridin-3-yl)-1H-indol-5-yl)-3-methylbenzonitrile], the IC50 was determined as 162 nM.

`COc1cc(C#N)ccc1-c1ccc2[nH]c(-c3c(F)cccc3Cl)cc2c1` [Example 172, 4-[2-(2-Chloro-6-fluoro-phenyl)-1H-indol-5-yl]-3-methoxy-benzonitrile]: the IC50 came out at 15 nM.

For `Cc1cc(C#N)ccc1-c1ccc2[nH]c(-c3cscc3C)cc2c1` [Example 149, methyl-4-(2-(4-methylthiophen-3-yl)-1H-indol-5-yl)benzonitrile], the IC50 was found to be 286 nM.

The compound `Cc1ccccc1-c1cc2cc(-c3nc(-c4ccccn4)sc3C)ccc2[nH]1` [Example 6, 5-(5-Methyl-2-pyridin-2-yl-thiazol-4-yl)-2-o-tolyl-1H-indole] showed an IC50 of 611 nM.

The compound `Cc1cccc(C)c1-c1cc2cc(-c3nc(-c4cccnc4)sc3C)ccc2[nH]1` [Example 218, 2-(2,6-Dimethyl-phenyl)-5-(5-methyl-2-pyridin-3-yl-thiazol-4-yl)-1H-indole] yielded a half-maximal inhibitory concentration (IC50) of 110 nM.

As for `Cc1sc(-c2ccccn2)nc1-c1ccc2[nH]c(-c3cc(F)ccc3Cl)cc2c1` [Example 58, 2-(2-Chloro-5-fluoro-phenyl)-5-(5-methyl-2-pyridin-2-yl-thiazol-4-yl)-1H-indole], the concentration for half-maximal inhibition (IC50) was 689 nM.

Regarding `Cc1cc(C#N)ccc1-c1ccc2[nH]c(-c3ccnn3C)cc2c1` [Example 150, methyl-4-(2-(1-methyl-1H-pyrazol-5-yl)-1H-indol-5-yl)benzonitrile], the IC50 was 618 nM.

In turn, `Cc1sc(C2CCOCC2)nc1-c1ccc2[nH]c(-c3c(F)cccc3F)cc2c1` [Example 74, 2-(2,6-Difluoro-phenyl)-5-[5-methyl-2-(tetrahydro-pyran-4-yl)-thiazol-4-yl]-1H-indole] had an IC50 of 668 nM.

`CC(c1sc(-c2cccnc2)nc1-c1ccc2[nH]c(-c3c(F)cccc3Cl)cc2c1)C(F)(F)F` (stereo not drawn) [Example 182, 2-(2-chloro-6-fluoro-phenyl)-5-[2-pyridin-3-yl-5-(2,2,2-trifluoro-1-methyl-ethyl)-thiazol-4-yl]-1H-indole] returned a concentration for half-maximal inhibition (IC50) of 142 nM.

In the case of `Cn1nc(C(F)(F)F)cc1-c1ccc2[nH]c(-c3ccc(Cl)cc3Cl)cc2c1` [Example 34, 2-(2,4-Dichloro-phenyl)-5-(2-methyl-5-trifluoromethyl-2H-pyrazol-3-yl)-1H-indole], it took 184 nM to reach half-maximal inhibition (IC50). This IC50 and that of the compound before are within 1.5-fold of each other.

In the case of `CCOc1cc(C)c(-c2ccc3[nH]c(-c4c(F)cccc4Cl)cc3c2)cn1` [Example 164, 2-(2-chloro-6-fluorophenyl)-5-(6-ethoxy-4-methylpyridin-3-yl)-1H-indole], half-maximal inhibition (IC50) was put at 33 nM.

Compound `Fc1cccc(F)c1-c1cc2cc(-c3ccc(C(F)(F)F)cc3Cl)ccc2[nH]1` [Example 94, 5-(2-Chloro-4-trifluoromethyl-phenyl)-2-(2,6-difluoro-phenyl)-1H-indole] yielded an IC50 of 175 nM. This IC50 lies about 5.3-fold higher than the previous one.

Take `Cc1cc(C#N)ccc1-c1ccc2[nH]c(-c3ccc(S(C)(=O)=O)cc3F)cc2c1` [Example 133, 4-[2-(2-Fluoro-4-methanesulfonyl-phenyl)-1H-indol-5-yl]-3-methyl-benzonitrile]: the IC50 is 976 nM. This IC50 lies about 5.6-fold higher than the previous one.

In turn, `Cc1cc(F)ccc1-c1ccc2[nH]c(-c3c(F)cccc3F)cc2c1` [Example 91, 2-(2,6-Difluoro-phenyl)-5-(4-fluoro-2-methyl-phenyl)-1H-indole] showed an IC50 of 456 nM.

For the compound `Cc1ccccc1-c1cc2cc(-c3cc(-c4cccnc4)nn3C)ccc2[nH]1` [Example 79, 5-(2-Methyl-5-pyridin-3-yl-2H-pyrazol-3-yl)-2-o-tolyl-1H-indole], half-maximal inhibition (IC50) was put at 139 nM.

As for `COC(=O)c1ccc(-c2cc3cc(-c4cc(C(F)(F)F)nn4C)ccc3[nH]2)c(C)c1` [Example 39, 3-Methyl-4-[5-(2-methyl-5-trifluoromethyl-2H-pyrazol-3-yl)-1H-indol-2-yl]-benzoic acid methyl ester], the IC50 was found to be 148 nM.

`CNC(=O)c1cc(C)c(-c2ccc3[nH]c(-c4c(F)cccc4Cl)cc3c2)cn1` [Example 118, 5-[2-(2-Chloro-6-fluoro-phenyl)-1H-indol-5-yl]-4-methyl-pyridine-2-carboxylic acid methylamide] showed an IC50 of 180 nM.
